Data reported in PMC5218480 (PLoS ONE, 2017).

Test system: MV-4-11 cells
Assay: Gene expression microarray analysis (Affymetrix PrimeView) and GSEA
Assay type: cell-based, human
Set-up: RFU PODN (11730768_x_at) / Fold change /veh PODN (11730768_x_at) / RFU LINC00158 (11744669_a_at) / Fold change /veh LINC00158 (11744669_a_at) / RFU DUSP10 (11751237_a_at) / Fold change /veh DUSP10 (11751237_a_at) / RFU ID3 (11757404_x_at) / Fold change /veh ID3 (11757404_x_at) / RFU PLEKHG5 (11737974_s_at) / Fold change /veh PLEKHG5 (11737974_s_at) / RFU LRRC4B (11730491_at) / Fold change /veh LRRC4B (11730491_at) / RFU GIMAP4 (11747438_a_at) / Fold change /veh GIMAP4 (11747438_a_at) / RFU KRT8 (11758183_x_at) / Fold change /veh KRT8 (11758183_x_at) / RFU CNN1 (11734310_a_at) / Fold change /veh CNN1 (11734310_a_at) / RFU VPS37D (11726825_at) / Fold change /veh VPS37D (11726825_at) / RFU C10orf10 (11716522_x_at) / Fold change /veh C10orf10 (11716522_x_at) / RFU KIR2DL2 /// KIR2DL4 /// KIR2DL5A /// KIR2DL5B /// KIR2DS1 /// KIR2DS2 /// KIR2DS3 /// KIR2DS4 /// KIR3DL3 /// KIR3DL3 /// KIR3DS1 (11738374_at) / Fold change /veh KIR2DL2 /// KIR2DL4 /// KIR2DL5A /// KIR2DL5B /// KIR2DS1 /// KIR2DS2 /// KIR2DS3 /// KIR2DS4 /// KIR3DL3 /// KIR3DL3 /// KIR3DS1 (11738374_at) / RFU C1QL1 (11718748_at) / Fold change /veh C1QL1 (11718748_at) / RFU TMPRSS4 (11747572_a_at) / Fold change /veh TMPRSS4 (11747572_a_at) / RFU HAMP (11756126_x_at) / Fold change /veh HAMP (11756126_x_at) / RFU RNFT2 (11725882_a_at) / Fold change /veh RNFT2 (11725882_a_at) / RFU NR4A2 (11747474_a_at) / Fold change /veh NR4A2 (11747474_a_at) / RFU ABCC12 (11746883_a_at) / Fold change /veh ABCC12 (11746883_a_at) / RFU TMEM136 (11760407_x_at) / Fold change /veh TMEM136 (11760407_x_at) / RFU CLDN22 /// WWC2 (11732394_at) / Fold change /veh CLDN22 /// WWC2 (11732394_at) / RFU HLA-DPB1 (11760878_x_at) / Fold change /veh HLA-DPB1 (11760878_x_at) / RFU SPINT1 (11716480_a_at) / Fold change /veh SPINT1 (11716480_a_at) / RFU GAP43 (11754022_s_at) / Fold change /veh GAP43 (11754022_s_at) / RFU A4GNT (11735810_at) / Fold change /veh A4GNT (11735810_at) / RFU PRB3 (11715151_x_at) / Fold change /veh PRB3 (11715151_x_at) / RFU TUBB4B (11761932_at) / Fold change /veh TUBB4B (11761932_at) / RFU CAPN14 (11732068_a_at) / Fold change /veh CAPN14 (11732068_a_at) / RFU TMCC2 (11721928_a_at) / Fold change /veh TMCC2 (11721928_a_at) / RFU IRGQ (11745062_a_at) / Fold change /veh IRGQ (11745062_a_at) / RFU FAM174B (11720279_a_at) / Fold change /veh FAM174B (11720279_a_at) / RFU TMPRSS4 (11748680_a_at) / Fold change /veh TMPRSS4 (11748680_a_at) / RFU FAM212B (11763350_a_at) / Fold change /veh FAM212B (11763350_a_at) / RFU PLEKHG5 (11743358_a_at) / Fold change /veh PLEKHG5 (11743358_a_at) / RFU ZSCAN30 (11745921_a_at) / Fold change /veh ZSCAN30 (11745921_a_at) / RFU CMKLR1 (11741424_a_at) / Fold change /veh CMKLR1 (11741424_a_at) / RFU LOC101060620 /// MAPK8IP1 (11723275_at) / Fold change /veh LOC101060620 /// MAPK8IP1 (11723275_at) / RFU SPTSSB (11747773_x_at) / Fold change /veh SPTSSB (11747773_x_at) / RFU PRSS12 (11739890_at) / Fold change /veh PRSS12 (11739890_at) / RFU BIN1 (11741810_x_at) / Fold change /veh BIN1 (11741810_x_at) / RFU WNT11 (11732464_a_at) / Fold change /veh WNT11 (11732464_a_at) / RFU C10orf10 (11716521_a_at) / Fold change /veh C10orf10 (11716521_a_at) / RFU C5orf56 (11738089_at) / Fold change /veh C5orf56 (11738089_at) / RFU CYB561 (11721691_x_at) / Fold change /veh CYB561 (11721691_x_at) / RFU ANKRD19P (11752326_a_at) / Fold change /veh ANKRD19P (11752326_a_at) / RFU OR2T12 /// OR2T33 /// OR2T8 (11738714_s_at) / Fold change /veh OR2T12 /// OR2T33 /// OR2T8 (11738714_s_at) / RFU VCAN (11748164_a_at) / Fold change /veh VCAN (11748164_a_at) / RFU JSRP1 (11732532_at) / Fold change /veh JSRP1 (11732532_at) / RFU KRTAP10-11 (11738290_x_at) / Fold change /veh KRTAP10-11 (11738290_x_at) / RFU MYO3A (11730013_a_at) / Fold change /veh MYO3A (11730013_a_at) / RFU EBF3 (11725865_a_at) / Fold change /veh EBF3 (11725865_a_at) / RFU CAMK2N1 (11719241_x_at) / Fold change /veh CAMK2N1 (11719241_x_at) / RFU C5orf56 (11738088_a_at) / Fold change /veh C5orf56 (11738088_a_at) / RFU OLFML3 (11715873_a_at) / Fold change /veh OLFML3 (11715873_a_at) / RFU LOC100653217 /// NTM (11731650_a_at) / Fold change /veh LOC100653217 /// NTM (11731650_a_at) / RFU MAPK11 (11762145_a_at) / Fold change /veh MAPK11 (11762145_a_at) / RFU FIZ1 (11724087_x_at) / Fold change /veh FIZ1 (11724087_x_at) / RFU OASL (11726364_x_at) / Fold change /veh OASL (11726364_x_at) / RFU SOX15 (11748057_x_at) / Fold change /veh SOX15 (11748057_x_at) / RFU CD79A (11719716_a_at) / Fold change /veh CD79A (11719716_a_at) / RFU HIST1H1D (11736915_at) / Fold change /veh HIST1H1D (11736915_at) / RFU CASKIN2 (11723855_a_at) / Fold change /veh CASKIN2 (11723855_a_at) / RFU LOC730098 (11760151_x_at) / Fold change /veh LOC730098 (11760151_x_at) / RFU OR4N2 (11742367_at) / Fold change /veh OR4N2 (11742367_at) / RFU PRRT2 (11749266_a_at) / Fold change /veh PRRT2 (11749266_a_at) / RFU SNX32 (11753110_a_at) / Fold change /veh SNX32 (11753110_a_at) / RFU CDHR5 (11726645_a_at) / Fold change /veh CDHR5 (11726645_a_at) / RFU RCAN1 (11760418_a_at) / Fold change /veh RCAN1 (11760418_a_at) / RFU FAM167A (11723789_a_at) / Fold change /veh FAM167A (11723789_a_at) / RFU FAM26E (11764081_at) / Fold change /veh FAM26E (11764081_at) / RFU ISYNA1 (11749810_s_at) / Fold change /veh ISYNA1 (11749810_s_at) / RFU ACY1 (11761880_at) / Fold change /veh ACY1 (11761880_at) / RFU 11764098_at / Fold change /veh 11764098_at / RFU SAMD14 (11745864_x_at) / Fold change /veh SAMD14 (11745864_x_at) / RFU NPB (11741838_a_at) / Fold change /veh NPB (11741838_a_at) / RFU TMPRSS6 (11731388_a_at) / Fold change /veh TMPRSS6 (11731388_a_at) / RFU KRTAP10-2 (11738614_at) / Fold change /veh KRTAP10-2 (11738614_at) / RFU ARHGAP8 /// PRR5-ARHGAP8 (11727945_x_at) / Fold change /veh ARHGAP8 /// PRR5-ARHGAP8 (11727945_x_at) / RFU KRTAP5-7 /// NADSYN1 (11734609_at) / Fold change /veh KRTAP5-7 /// NADSYN1 (11734609_at) / RFU RASL12 (11751679_a_at) / Fold change /veh RASL12 (11751679_a_at) / RFU CDKN2B (11736163_a_at) / Fold change /veh CDKN2B (11736163_a_at) / RFU PRF1 (11729649_at) / Fold change /veh PRF1 (11729649_at) / RFU, ZNF638 /// ZNF638-IT1 / Fold change vs veh, ZNF638 /// ZNF638-IT1 / RFU, PANK3 / Fold change vs veh, PANK3 / RFU, SH3YL1 / Fold change vs veh, SH3YL1 / RFU, ZEB2 / Fold change vs veh, ZEB2 / RFU, NRIP1 / Fold change vs veh, NRIP1 / RFU, PTTG1IP / Fold change vs veh, PTTG1IP / RFU, CAPN2 / Fold change vs veh, CAPN2 / RFU, MED14 / Fold change vs veh, MED14 / RFU, SNORA58 / Fold change vs veh, SNORA58 / RFU, C1orf63 / Fold change vs veh, C1orf63 / RFU, LRRFIP1 / Fold change vs veh, LRRFIP1 / RFU, NDUFAF7 / Fold change vs veh, NDUFAF7 / RFU, SLC12A2 / Fold change vs veh, SLC12A2 / RFU, IBTK / Fold change vs veh, IBTK / RFU, ESF1 / Fold change vs veh, ESF1 / Fold change vs veh, TMEM50B / RFU, TAOK1 / Fold change vs veh, TAOK1 / RFU, ACBD3 / Fold change vs veh, ACBD3 / RFU, TMA16 / Fold change vs veh, TMA16 / RFU, RWDD3 / Fold change vs veh, RWDD3 / RFU, BCAT1 / Fold change vs veh, BCAT1 / RFU, EDEM3 / Fold change vs veh, EDEM3 / RFU, TMEM33 / Fold change vs veh, TMEM33 / RFU, WDR75 / Fold change vs veh, WDR75 / RFU, AHCTF1 / Fold change vs veh, AHCTF1 / RFU, TFRC / Fold change vs veh, TFRC / RFU, ZDHHC17 / Fold change vs veh, ZDHHC17 / RFU, NOM1 / Fold change vs veh, NOM1 / RFU, ARL8B / Fold change vs veh, ARL8B / RFU, ZBTB11 / Fold change vs veh, ZBTB11 / RFU, TAMM41 / Fold change vs veh, TAMM41 / RFU, KIAA1704 /// LOC100996395 / Fold change vs veh, KIAA1704 /// LOC100996395 / RFU, ING1 / Fold change vs veh, ING1 / RFU, TRMT61B / Fold change vs veh, TRMT61B / RFU, FUBP3 / Fold change vs veh, FUBP3 / RFU, TP53 / Fold change vs veh, TP53 / RFU, TNKS2 / Fold change vs veh, TNKS2 / RFU, ZFP14 / Fold change vs veh, ZFP14 / RFU, ACTR2 / Fold change vs veh, ACTR2 / RFU, PPP3R1 / Fold change vs veh, PPP3R1 / RFU, PIK3R1 / Fold change vs veh, PIK3R1 / RFU, HNRNPA1 / Fold change vs veh, HNRNPA1 / RFU, RNF170 / Fold change vs veh, RNF170 / RFU, ZNF28 / Fold change vs veh, ZNF28 / RFU, RNGTT / Fold change vs veh, RNGTT / RFU, OGT / Fold change vs veh, OGT / RFU, BRD1 / Fold change vs veh, BRD1 / RFU, MARS / Fold change vs veh, MARS / RFU, ZNF655 / Fold change vs veh, ZNF655 / RFU, FAHD1 / Fold change vs veh, FAHD1 / RFU, BDP1 / Fold change vs veh, BDP1 / RFU, LRRCC1 / Fold change vs veh, LRRCC1 / RFU, ARID1A / Fold change vs veh, ARID1A / RFU, ZNF146 / Fold change vs veh, ZNF146 / RFU, ZNF330 / Fold change vs veh, ZNF330 / RFU, GPN3 / Fold change vs veh, GPN3 / RFU, C9orf123 / Fold change vs veh, C9orf123 / RFU, N4BP2L2 / Fold change vs veh, N4BP2L2 / RFU, ARFIP1 / Fold change vs veh, ARFIP1 / RFU, FAM179B / Fold change vs veh, FAM179B / RFU, BCL10 / Fold change vs veh, BCL10 / RFU, UHRF1BP1L / Fold change vs veh, UHRF1BP1L / RFU, BET1 / Fold change vs veh, BET1 / RFU, CNOT2 / Fold change vs veh, CNOT2 / RFU, ZNF268 / Fold change vs veh, ZNF268 / Fold change vs veh, ZNF507 / RFU, DGCR2 / Fold change vs veh, DGCR2 / RFU, WDSUB1 / Fold change vs veh, WDSUB1 / Fold change vs veh, HSP90B1 /// MIR3652 / RFU, ADSS / Fold change vs veh, ADSS / RFU, GK / Fold change vs veh, GK / RFU, ZNF148 / Fold change vs veh, ZNF148 / RFU, TAF9 / Fold change vs veh, TAF9 / RFU, SLC1A5 / Fold change vs veh, SLC1A5 / RFU, SLMO2 / Fold change vs veh, SLMO2 / RFU, ABCC4 / Fold change vs veh, ABCC4 / RFU, LOC101060439 /// RAP1B / Fold change vs veh, LOC101060439 /// RAP1B / RFU, RFX7 / Fold change vs veh, RFX7 / RFU, GTPBP10 / Fold change vs veh, GTPBP10 / RFU, CNEP1R1 / Fold change vs veh, CNEP1R1 / RFU, BIVM-ERCC5 /// ERCC5 / Fold change vs veh, BIVM-ERCC5 /// ERCC5 / RFU, ILF3 / Fold change vs veh, ILF3 / RFU 11762660_at / Fold change /veh 11762660_at / RFU VCAN (11757783_s_at) / Fold change /veh VCAN (11757783_s_at) / RFU DDX43 (11728927_at) / Fold change /veh DDX43 (11728927_at) / RFU KRT8 (11758188_x_at) / Fold change /veh KRT8 (11758188_x_at) / RFU NKD1 (11759106_at) / Fold change /veh NKD1 (11759106_at) / RFU SRD5A1 (11742802_a_at) / Fold change /veh SRD5A1 (11742802_a_at) / RFU TPSAB1 /// TPSB2 (11721975_s_at) / Fold change /veh TPSAB1 /// TPSB2 (11721975_s_at) / RFU GSTM3 (11746129_a_at) / Fold change /veh GSTM3 (11746129_a_at) / RFU IL23R (11737362_x_at) / Fold change /veh IL23R (11737362_x_at) / RFU TMEM51 (11727254_a_at) / Fold change /veh TMEM51 (11727254_a_at) / RFU PIWIL2 (11732686_x_at) / Fold change /veh PIWIL2 (11732686_x_at) / RFU ORM1 (11744905_x_at) / Fold change /veh ORM1 (11744905_x_at) / RFU CCDC152 (11743942_at) / Fold change /veh CCDC152 (11743942_at) / RFU ECM1 (11717891_a_at) / Fold change /veh ECM1 (11717891_a_at) / RFU IL23R (11748794_a_at) / Fold change /veh IL23R (11748794_a_at) / RFU TNFAIP8L3 (11732012_x_at) / Fold change /veh TNFAIP8L3 (11732012_x_at) / RFU MBOAT4 (11741988_at) / Fold change /veh MBOAT4 (11741988_at) / RFU 11764193_at / Fold change /veh 11764193_at / RFU TMEM53 (11763286_at) / Fold change /veh TMEM53 (11763286_at) / RFU MAGEB2 (11727129_at) / Fold change /veh MAGEB2 (11727129_at) / RFU TMEM200A (11744735_a_at) / Fold change /veh TMEM200A (11744735_a_at) / RFU CCDC152 (11751479_a_at) / Fold change /veh CCDC152 (11751479_a_at) / RFU FAM211A (11726209_a_at) / Fold change /veh FAM211A (11726209_a_at) / RFU RGS16 (11746705_a_at) / Fold change /veh RGS16 (11746705_a_at) / RFU VCAN (11755009_s_at) / Fold change /veh VCAN (11755009_s_at) / RFU RHOB (11743442_s_at) / Fold change /veh RHOB (11743442_s_at) / RFU RGS16 (11720943_a_at) / Fold change /veh RGS16 (11720943_a_at) / RFU RGS16 (11720944_at) / Fold change /veh RGS16 (11720944_at) / RFU, VPS4B / Fold change vs veh, VPS4B / RFU, CREB1 / Fold change vs veh, CREB1 / RFU, DNAJC13 / Fold change vs veh, DNAJC13 / RFU, GNAQ / Fold change vs veh, GNAQ / RFU, CDK5R1 / Fold change vs veh, CDK5R1 / RFU, ZRANB3 / Fold change vs veh, ZRANB3 / RFU, CUL4A / Fold change vs veh, CUL4A / RFU, CCNY / Fold change vs veh, CCNY / RFU, UFL1 / Fold change vs veh, UFL1 / RFU, COG3 / Fold change vs veh, COG3 / RFU, DIAPH2 / Fold change vs veh, DIAPH2 / RFU, SKA2 / Fold change vs veh, SKA2 / RFU, AFF3 / Fold change vs veh, AFF3 / RFU, LMF1 / Fold change vs veh, LMF1 / RFU, IPO11 / Fold change vs veh, IPO11 / RFU, DFFB / Fold change vs veh, DFFB / RFU, FOXP1 / Fold change vs veh, FOXP1 / RFU, CARD8 / Fold change vs veh, CARD8 / RFU, STRN3 / Fold change vs veh, STRN3 / RFU, ADK / Fold change vs veh, ADK / RFU, RASSF2 / Fold change vs veh, RASSF2 / RFU, WIPF1 / Fold change vs veh, WIPF1 / RFU, LARP1B / Fold change vs veh, LARP1B / RFU, RASA1 / Fold change vs veh, RASA1 / RFU, RB1 / Fold change vs veh, RB1 / RFU, PPFIA1 / Fold change vs veh, PPFIA1 / RFU, MAT2A / Fold change vs veh, MAT2A / RFU, CCT5 / Fold change vs veh, CCT5 / RFU, WDR92 / Fold change vs veh, WDR92 / RFU, CUX1 / Fold change vs veh, CUX1 / RFU, TTC7A / Fold change vs veh, TTC7A / RFU, TMEM135 / Fold change vs veh, TMEM135 / RFU, DEPTOR / Fold change vs veh, DEPTOR / RFU, CPM / Fold change vs veh, CPM / RFU, DNAJB6 / Fold change vs veh, DNAJB6 / RFU, CACNA2D3 / Fold change vs veh, CACNA2D3 / RFU, DTX4 / Fold change vs veh, DTX4 / RFU, TFCP2 / Fold change vs veh, TFCP2 / RFU, GMCL1 /// GMCL1P1 / Fold change vs veh, GMCL1 /// GMCL1P1 / RFU, AEBP2 / Fold change vs veh, AEBP2 / RFU, SNHG1 /// SNORD22 /// SNORD25 /// SNORD26 /// SNORD27 /// SNORD28 /// SNORD29 /// SNORD31 / Fold change vs veh, SNHG1 /// SNORD22 /// SNORD25 /// SNORD26 /// SNORD27 /// SNORD28 /// SNORD29 /// SNORD31 / Fold change (Aza/veh), C12orf56 (ProbeSet 11735607_a_at) / Fold change (ACY-1035/veh), C12orf56 (ProbeSet 11735607_a_at) / Fold change (Aza/veh), FGFR1OP (ProbeSet 11751329_s_at) / Fold change (ACY-1035/veh), FGFR1OP (ProbeSet 11751329_s_at) / Fold change (Aza/veh), VPS36 (ProbeSet 11739960_a_at) / Fold change (ACY-1035/veh), VPS36 (ProbeSet 11739960_a_at) / RFU SYPL1 (11715823_x_at) / Fold change /veh SYPL1 (11715823_x_at) / RFU IGFBP7 (11715501_s_at) / Fold change /veh IGFBP7 (11715501_s_at) / RFU REEP3 (11722064_at) / Fold change /veh REEP3 (11722064_at) / RFU IGLL1 (11728026_x_at) / Fold change /veh IGLL1 (11728026_x_at): dose or concentration left out as unconfirmed
Conditions: MV-4-11 cells, 48 hours

Structure (SMILES): Nc1ccc(-c2cccs2)cc1NC(=O)c1ccc2c(c1)cc(C1CC1)n2CCN1CCOCC1 [ACY-1035]
- RFU IL23R (11737362_x_at): 7.94 RFU
